# Test results: PMC6270001, “Synthesis and Antiviral Activity of N-Phenylbenzamide Derivatives, a Novel Class of Enterovirus 71 Inhibitors” (Molecules, 2013)
# Legend:
# [1] = test system: EV 71 strain BrCr (genotype A); experiment: Anti EV 71 activity assay (CPE, Reed & Muench) in Vero cells, strain BrCr; format: cell-based, Enterovirus 71; conditions: for IC50: EV 71 strain BrCr, Vero cells, 100 TCID50, CPE, average ± SD, n=3; for SI BrCr: selectivity index TC50/IC50, strain BrCr, "-" stands for no antiviral selectivity
# Procedure: (§1) The EV 71 was divided into three genotypes A, B and C based on nucleotide sequence comparisons, and genotypes B and C were subdivided into B1-B5 and C1-C5 [6, 10]. Genotype C is the most common genotype found in mainland China, especially the C4 subgenotype. Consequently, the intermediate compounds 1a, 1c and 1e, and the final products 2a–c, 3a–g, and 5a–f were evaluated for their anti-EV 71 activity in Vero cells against genotypes C4 (strains SZ-98 and JS-52-3), C2 (strain H) and A (strain BrCr). […] The IC50 values were calculated by the Reed and Muench method, and the cytotoxicity was monitored by the CPE method.
# (§2) Vero cells were purchased from the American Type Culture Collection and cultured in Minimum Essential Medium (MEM) supplemented with 10% Fetal Bovine Serum (FBS) and antibiotics (100 U/mL penicillin G, 100 μg/mL streptomycin). Enterovirus 71 (EV 71) strain SZ-98 was kindly provided by Dr. Qi Jin, Institute of Pathogen Biology, Chinese Academy of Medical Science and Peking Union Medical School. Enterovirus 71 (EV 71) strain BrCr (VR-1775) was purchased from the American Type Culture Collection. Enterovirus 71 (EV 71) strain JS-52-3 was kindly provided by Dr. Xiang-zhong Ye, Beijing Wantai Biological Pharmacy Enterprise Co., Ltd. All Enterovirus 71 strains were propagated in Vero cells.
# (§3) All compounds were dissolved in DMSO at 20 mg/mL as a stock solution and further diluted in culture medium prior to use. The initial concentration in all cytotoxicity assay was 200 µg/mL, and inhibition assay for anti-EV71 experiments was from maximum non-toxic concentration, and proceeded serially 3-fold dilution with culture medium. All cytotoxicity and activity assay for each compound was repeated for three times, and the data was indicated as average ± SD.
# (§4) Confluent Vero cells grown in 96-well microplates were infected respectively with 100 median tissue culture infective dose (TCID50) EV 71. After 1 h adsorption at 37 °C, the monolayers were washed by PBS and incubated at 37 °C in the maintenance medium with or without different concentrations of test compounds.
# Vero cells = experiment: Cytotoxicity determination in Vero cells monitored by cytopathic effect (CPE); format: cell-based; conditions: 48 h, Reed & Muench, concentration that inhibits 50% cellular growth, average ± SD, n=3
# Procedure: as §2, with “Enterovirus 71 (EV 71) strain BrCr (VR-1775) was purchased from the American Type Culture Collection.” left out
# as §3
# The cytotoxicity of compounds in the presence of Vero cells was monitored by cytopathic effect (CPE). Vero cells (2.5 × 10^4/well) were plated into a 96-well plate. A total of 24 h later, the monolayer cells were incubated in the presence of various concentrations of test compounds. […] The median toxic concentration (TC50) was calculated by Reed & Muench analyses.
# [2] = test system: EV 71 strains SZ-98, JS-52-3, H, BrCr; experiment: Anti EV 71 activity assay in Vero cells, summary over the four strains tested; format: cell-based, Enterovirus 71
# Procedure: as §1, §2, §3, §4
# [3] = test system: EV 71 strain SZ-98 (genotype C4); experiment: Anti EV 71 activity assay (CPE, Reed & Muench) in Vero cells, strain SZ-98; format: cell-based, Enterovirus 71; conditions: Enterovirus A, Vero, EV 71 strain SZ-98, Vero cells, 100 TCID50, CPE; average ± SD, n=3
# Procedure: as §1, §2, §3, §4
# [4] = test system: EV 71 strain H (genotype C2); experiment: Anti EV 71 activity assay (CPE, Reed & Muench) in Vero cells, strain H; format: cell-based, Enterovirus 71; conditions: for IC50: Enterovirus A, Vero, EV 71 strain H (C2 genotype), Vero cells, 100 TCID50, CPE, average ± SD, n=3; for SI H: selectivity index TC50/IC50, strain H, "-" stands for no antiviral selectivity
# Procedure: as §1, §2, §3, §4
# [5] = test system: EV 71 strain JS-52-3 (genotype C4); experiment: Anti EV 71 activity assay (CPE, Reed & Muench) in Vero cells, strain JS-52-3; format: cell-based, Enterovirus 71; conditions: for IC50: Enterovirus A, Vero, EV 71 strain JS-52-3, Vero cells, 100 TCID50, CPE, average ± SD, n=3; for SI JS-52-3: selectivity index TC50/IC50, strain JS-52-3, "-" stands for no antiviral selectivity
# Procedure: as §1, §2, §3, §4
# 16 enteroviruses = conditions: cited from earlier work
"IC50 ([1]; Enterovirus A, Vero) [µM]",melting point [°C],IC50 [3] [µM],IC50 [4] [µM],IC50 [5] [µM],IC50 [1] [µM],SMILES,SI BrCr [1],TC50 (Vero cells) [µM],anti-EV 71 activity (in words) ([2]; structure-activity discussion),SI H [4],SI JS-52-3 [5],"selectivity index (SI) values (range over strains) ([2]; TC50/IC50, range over the EV 71 strains tested)",concentration effective against 80% of 16 enteroviruses tested (16 enteroviruses) [µg/mL]
360 ± 26,192 to 194,> 620,430 ± 36,210,–,"COc1ccc(C(=O)NC2CCCCC2)cc1NC(=O)C(C)F (stereo not drawn) [Compound 2b, N-Cyclohexyl-3-(2-fluoropropanamido)-4-methoxybenzamide]",>1.7,>620,no anti-EV 71 activity was observed,>1.4,>3.0,–,–
~15,164 to 167,> 59,~15,34 ± 2.5,20 ± 3.1,"CCCNc1cc(C(=O)Nc2cc(OC)c(OC)c(OC)c2)ccc1OC [Compound 3g, 4-Methoxy-3-(propylamino)-N-(3,4,5-trimethoxyphenyl)benzamide]",27,530,–,35,16,16–35,–

SMILES,"IC50 ([1]; Enterovirus A, Vero) [µM]",melting point [°C],IC50 [3] [µM],IC50 [4] [µM],IC50 [5] [µM],IC50 [1] [µM],SI BrCr [1],TC50 (Vero cells) [µM],anti-EV 71 activity (in words) ([2]; structure-activity discussion),SI H [4],SI JS-52-3 [5],"selectivity index (SI) values (range over strains) ([2]; TC50/IC50, range over the EV 71 strains tested)",concentration effective against 80% of 16 enteroviruses tested (16 enteroviruses) [µg/mL]
"CCOC(=O)c1ccc(OCCC2CCN(c3ccc(C)nn3)CC2)cc1 [Pirodavir, pirodavir, reference compound]",1 ± 0.2,–,1.2 ± 0.2,0.6 ± 0.1,1 ± 0.2,–,–,31 ± 2.2,–,–,–,–,1.3
